Data published in patent publication US11168087B2, “Substituted imidazo[1,2-b]pyridazines, substituted imidazo[1,5-b]pyridazines, related compounds, and their use in the treatment of medical disorders” (BIAL—R&D Investments, S.A., priority 2016, dated 2021).

Molecular target: T1, glucocerebrosidase (Gcase) (Homo sapiens, UniProt P04062)
T1 construct: micellar solution containing 10 nM GCase and 100 nM saposin C
T1 sequence (P04062 40-536): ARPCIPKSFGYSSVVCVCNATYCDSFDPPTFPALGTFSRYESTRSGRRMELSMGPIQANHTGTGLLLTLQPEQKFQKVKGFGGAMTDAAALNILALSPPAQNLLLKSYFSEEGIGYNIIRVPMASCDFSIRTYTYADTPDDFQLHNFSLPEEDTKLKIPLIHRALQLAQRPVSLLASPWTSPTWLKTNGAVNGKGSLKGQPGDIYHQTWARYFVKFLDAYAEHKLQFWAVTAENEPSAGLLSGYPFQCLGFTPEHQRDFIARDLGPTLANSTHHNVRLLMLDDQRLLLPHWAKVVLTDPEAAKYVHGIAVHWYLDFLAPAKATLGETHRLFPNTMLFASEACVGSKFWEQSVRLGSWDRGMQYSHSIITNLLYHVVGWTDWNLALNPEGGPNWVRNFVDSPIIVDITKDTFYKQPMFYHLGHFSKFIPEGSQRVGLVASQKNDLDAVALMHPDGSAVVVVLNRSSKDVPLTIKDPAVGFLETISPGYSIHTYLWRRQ
Assay: Glucocerebrosidase (Gcase) activation assay, 4-methylumbelliferyl-beta-D-glucopyranoside substrate, with saposin C
Format: biochemical
Conditions: 0.25 h; for activation at 0.1 µM: read-out: Percent Gcase Activation 0.1 μM Test Compound; for activation at 1 µM: read-out: Percent Gcase Activation 1 μM Test Compound
Method: The ability of exemplary compounds to activate glucocerebrosidase (Gcase) was measured.
A 484 μL aliquot of a 1.0 mg/mL solution of phosphatidylserine (PS) (Sigma P7769) in chloroform was evaporated under a stream of nitrogen for 1 hour. The lipid film was dissolved over 4 minutes of vigorous vortexing in 40 mL of 176 mM K2HPO4/50 mM citric acid (pH 4.7) containing 7.5 μL of triton X-100, resulting in a mixed micellar preparation with a composition of 0.32 mM triton and 0.37 mol % PS. 4-Methylumbelliferyl-beta-D-glucopyranoside (ACROS-337025000) was dissolved in the micellar solution to a final concentration of 2 mM for use as the reaction substrate.
Test compounds were diluted to the desired concentrations with dimethylsulfoxide (DMSO) from 10 mM stocks, and 0.41 μL of the DMSO compound mixture was added to 100 μL of micellar solution containing 10 nM GCase and 100 nM saposin C (Enzo ALX-201-262-C050). Pre-incubation was allowed to occur for 30 minutes at room temperature, after which the reaction was initiated by combining 25 μL of substrate solution with 25 μL of compound/GCase/saposin mixture. The reaction proceeded for 15 minutes at room temperature and was stopped by adding 150 μL of 1M glycine, pH 12.5. The endpoint of the reaction was monitored by measuring fluorescence intensity (excitation: 365 nm; emission: 440 nm) on a SpectraMax i3 instrument (Molecular Devices). Test compounds were screened at 1.0 and 0.1 μM final concentration, and subsequent 8-point dose response curves were obtained using 3-fold dilutions from a maximum final concentration of 5 μM.
The symbol “+” indicates less than 5% Gcase activation; the symbol “++” indicates Gcase activation in the range of 5% up to 20%; and the symbol “+++” indicates Gcase activation greater than 20%.

| activation at 0.1 µM | activation at 1 µM | Compound |
| --- | --- | --- |
| < 5% | < 5% | CCCCCCOC1CCC(NC(=O)c2cnc3cc(C)c(Cl)nn23)CC1 (stereo not drawn) |
| < 5% | 5 to 20% | Cc1cc2ncc(C(=O)NC3CCCc4ccccc43)n2nc1Cl (stereo not drawn) |
| < 5% | 5 to 20% | CCC(NC(=O)c1cnc2cc(C)c(Cl)nn12)c1ccccc1 (stereo not drawn) |
| < 5% | 5 to 20% | O=C(Nc1ccc2c(c1)CCC2)c1cnc2ccc(Cl)nn12 |
| < 5% | 5 to 20% | O=C(NC1CCCc2ccccc21)c1cnc2ccc(Cl)nn12 (stereo not drawn) |
| < 5% | < 5% | CCC(NC(=O)c1cnc2ccc(Cl)nn12)c1ccccc1 (stereo not drawn) |
| < 5% | 5 to 20% | CCCCCO[C@H]1CC[C@H](NC(=O)c2cnc3ccc(Cl)nn23)CC1 |
| < 5% | > 20% | Cc1cc(C)c2ncc(C(=O)Nc3ccc(-c4cocn4)cc3)n2n1 |
| 5 to 20% | > 20% | Cc1cc(C)c2ncc(C(=O)Nc3ccc4c(c3)CCC4)n2n1 |
| 5 to 20% | > 20% | Cc1cc(C)c2ncc(C(=O)NC3CCCc4ccccc43)n2n1 (stereo not drawn) |
| < 5% | > 20% | CCC(NC(=O)c1cnc2c(C)cc(C)nn12)c1ccccc1 (stereo not drawn) |
| 5 to 20% | > 20% | CCCCCO[C@H]1CC[C@H](NC(=O)c2cnc3c(C)cc(C)nn23)CC1 |
| 5 to 20% | > 20% | Cc1cc(C)c2ncc(C(=O)NC3(C)CCCc4ccccc43)n2n1 (stereo not drawn) |
| 5 to 20% | > 20% | C#Cc1ccc(NC(=O)c2cnc3c(C)cc(C)nn23)cc1 |
| 5 to 20% | > 20% | CCCCCCOC1CCC(NC(=O)c2cnc3c(C)cc(Cl)nn23)CC1 (stereo not drawn) |
| 5 to 20% | > 20% | Cc1cc(Cl)nn2c(C(=O)Nc3ccc4c(c3)CCC4)cnc12 |
| 5 to 20% | 5 to 20% | C#Cc1ccc(NC(=O)c2cnc3ccc(Cl)nn23)cc1 |
| < 5% | > 20% | C#Cc1ccc(NC(=O)c2ncc3c(C)cc(C)nn23)cc1 |
| < 5% | > 20% | CCC(NC(=O)c1ncc2c(C)cc(C)nn12)c1ccccc1 (stereo not drawn) |
| 5 to 20% | > 20% | Cc1cc(C)c2cnc(C(=O)NC3CCCc4ccccc43)n2n1 (stereo not drawn) |
| > 20% | > 20% | Cc1cc(C)c2cnc(C(=O)Nc3ccc4c(c3)CCC4)n2n1 |

| activation at 0.1 µM | activation at 1 µM | Compound |
| --- | --- | --- |
| < 5% | > 20% | Cc1cc(C)c2cnc(C(=O)Nc3ccc(-c4cocn4)cc3)n2n1 |
| < 5% | 5 to 20% | Cc1cc(C)c2ncc(C(=O)N[C@@H](C)C3CC3)n2n1 |
| 5 to 20% | > 20% | Cc1cc(C)c2ncc(C(=O)NC(C)(C)C3CC3)n2n1 |
| < 5% | > 20% | Cc1cc(C)c2ncc(C(=O)NC(C3CC3)C(F)(F)F)n2n1 (stereo not drawn) |
| 5 to 20% | > 20% | Cc1cc(-c2ccc(F)cc2)nn2c(C(=O)NC(C)(C)C3CC3)cnc12 |
| 5 to 20% | > 20% | Cc1cc(-c2ccc(F)cc2)nn2c(C(=O)N[C@@H](C)C3CC3)cnc12 |
| < 5% | > 20% | Cc1cc(-c2cccnc2)nn2c(C(=O)NC(C3CC3)C(F)(F)F)cnc12 (stereo not drawn) |
| > 20% | > 20% | Cc1cc(-c2cccc(F)c2)nn2c(C(=O)NC(C)(C)C3CC3)cnc12 |
| > 20% | > 20% | Cc1cc(-c2cccc(F)c2)nn2c(C(=O)NC(C3CC3)C(F)(F)F)cnc12 (stereo not drawn) |
| > 20% | > 20% | COc1cccc(-c2cc(C)c3ncc(C(=O)NC(C4CC4)C(F)(F)F)n3n2)c1 (stereo not drawn) |
| > 20% | > 20% | COc1cccc(-c2cc(C)c3ncc(C(=O)NC(C4CC4)C4CC4)n3n2)c1 |
| 5 to 20% | > 20% | Cc1cc(-c2ccns2)nn2c(C(=O)NC(C)(C)C3CC3)cnc12 |
| < 5% | > 20% | C#CC(C)(C)NC(=O)c1cnc2c(C)cc(-c3ccns3)nn12 |
| 5 to 20% | > 20% | Cc1cc(-c2ccns2)nn2c(C(=O)NC(C3CC3)C(F)(F)F)cnc12 (stereo not drawn) |
| > 20% | > 20% | Cc1cc(-c2ccc3ocnc3c2)nn2c(C(=O)NC(C)C3CC3)cnc12 (stereo not drawn) |
| > 20% | > 20% | Cc1cc(-c2ccc3ocnc3c2)nn2c(C(=O)NC(C3CC3)C(F)(F)F)cnc12 (stereo not drawn) |
| 5 to 20% | > 20% | Cc1cc(-c2cccc3ocnc23)nn2c(C(=O)NC(C3CC3)C(F)(F)F)cnc12 (stereo not drawn) |
| > 20% | > 20% | COc1cccc(-c2cc(C)c3ncc(C(=O)NC(C4CC4)C(F)(F)F)n3n2)n1 (stereo not drawn) |
| 5 to 20% | > 20% | Cc1cc(-c2ccc(F)cc2C#N)nn2c(C(=O)N[C@@H](C)C3CC3)cnc12 |
| < 5% | 5 to 20% | Cc1cc(C)c2cnc(C(=O)N[C@@H](C)C3CC3)n2n1 |
| < 5% | > 20% | Cc1cc(C)c2cnc(C(=O)NC(C)(C)C3CC3)n2n1 |

| activation at 0.1 µM | activation at 1 µM | Compound |
| --- | --- | --- |
| < 5% | > 20% | Cc1cc(C)c2cnc(C(=O)NC(C3CC3)C(F)(F)F)n2n1 (stereo not drawn) |
| > 20% | > 20% | Cc1cc(-c2ccc(F)cc2)nn2c(C(=O)NC(C)(C)C3CC3)ncc12 |
| 5 to 20% | > 20% | Cc1cc(-c2ccc(F)cc2)nn2c(C(=O)N[C@@H](C)C3CC3)ncc12 |
| > 20% | > 20% | Cc1cc(-c2ccc(F)cc2)nn2c(C(=O)NC(C3CC3)C(F)(F)F)ncc12 (stereo not drawn) |
| > 20% | > 20% | Cc1cc(-c2cccc(F)c2)nn2c(C(=O)NC(C)(C)C3CC3)ncc12 |
| 5 to 20% | > 20% | Cc1cc(-c2cccc(F)c2)nn2c(C(=O)NC(C)C(F)(F)F)ncc12 (stereo not drawn) |
| 5 to 20% | > 20% | Cc1cc(-c2ccc(F)cc2)nn2c(C(=O)NC(C)C(F)(F)F)ncc12 (stereo not drawn) |
| < 5% | < 5% | Cc1cc(-c2ccc(F)cc2)nn2c(C(=O)N[C@@H](C)C3CC3)nnc12 |
| < 5% | 5 to 20% | Cc1cc(-c2cccnc2)nc2c(C(=O)NC(C3CC3)C(F)(F)F)nsc12 (stereo not drawn) |
| < 5% | 5 to 20% | COc1cccc(-c2cc(C)c3snc(C(=O)N[C@@H](C)C4CC4)c3n2)n1 |
| < 5% | 5 to 20% | Cc1cc(-c2ccccn2)nc2c(C(=O)NC(C3CC3)C(F)(F)F)nsc12 (stereo not drawn) |
| < 5% | 5 to 20% | Cc1cc(-c2cccc(C(N)=O)c2)nc2c(C(=O)NC(C3CC3)C(F)(F)F)nsc12 (stereo not drawn) |
| < 5% | 5 to 20% | Cc1cc(-c2cccc3ocnc23)nc2c(C(=O)NC(C3CC3)C(F)(F)F)nsc12 (stereo not drawn) |
| > 20% | > 20% | Cc1cc(C)c2scc(C(=O)NC(C)(C)C3CC3)c2n1 |
| > 20% | > 20% | Cc1cc(C)c2scc(C(=O)NC(C3CC3)C(F)(F)F)c2n1 (stereo not drawn) |
| > 20% | > 20% | Cc1cc(-c2cccnc2)nc2c(C(=O)NC(C3CC3)C(F)(F)F)csc12 (stereo not drawn) |
| > 20% | > 20% | Cc1cc(-c2cccnc2)nc2c(C(=O)NC(C)C3CC3)csc12 (stereo not drawn) |
| > 20% | > 20% | Cc1cc(-c2cccc(C(N)=O)c2)nc2c(C(=O)NC(C3CC3)C(F)(F)F)csc12 (stereo not drawn) |
| > 20% | > 20% | Cc1cc(-c2cccc(C#N)c2)nn2c(C(=O)NC(C3CC3)C(F)(F)F)cnc12 (stereo not drawn) |
| > 20% | > 20% | Cc1cc(N2CCC(F)(F)C2)nn2c(C(=O)NC(C3CC3)C(F)(F)F)cnc12 (stereo not drawn) |
| > 20% | > 20% | Cc1cc(-c2occc2C#N)nn2c(C(=O)NC(C3CC3)C(F)(F)F)cnc12 (stereo not drawn) |
